Article PMC8617681 (Pharmaceuticals, 2021)

Assays:
human OATP1B3 = target: T1, human OATP1B3 (Homo sapiens, UniProt Q9NPD5); assay: Cellular uptake in OATP1B3-overexpressing HEK293 cells; type: in vitro ADME; settings: 5 µM, 2.5 min incubation, HEK293 OATP1B3
T1 construct: Werner Siegmund and Dr. Markus Keiser (University of Greifswald); host or cells: HEK293
T1 sequence (Q9NPD5 1-702): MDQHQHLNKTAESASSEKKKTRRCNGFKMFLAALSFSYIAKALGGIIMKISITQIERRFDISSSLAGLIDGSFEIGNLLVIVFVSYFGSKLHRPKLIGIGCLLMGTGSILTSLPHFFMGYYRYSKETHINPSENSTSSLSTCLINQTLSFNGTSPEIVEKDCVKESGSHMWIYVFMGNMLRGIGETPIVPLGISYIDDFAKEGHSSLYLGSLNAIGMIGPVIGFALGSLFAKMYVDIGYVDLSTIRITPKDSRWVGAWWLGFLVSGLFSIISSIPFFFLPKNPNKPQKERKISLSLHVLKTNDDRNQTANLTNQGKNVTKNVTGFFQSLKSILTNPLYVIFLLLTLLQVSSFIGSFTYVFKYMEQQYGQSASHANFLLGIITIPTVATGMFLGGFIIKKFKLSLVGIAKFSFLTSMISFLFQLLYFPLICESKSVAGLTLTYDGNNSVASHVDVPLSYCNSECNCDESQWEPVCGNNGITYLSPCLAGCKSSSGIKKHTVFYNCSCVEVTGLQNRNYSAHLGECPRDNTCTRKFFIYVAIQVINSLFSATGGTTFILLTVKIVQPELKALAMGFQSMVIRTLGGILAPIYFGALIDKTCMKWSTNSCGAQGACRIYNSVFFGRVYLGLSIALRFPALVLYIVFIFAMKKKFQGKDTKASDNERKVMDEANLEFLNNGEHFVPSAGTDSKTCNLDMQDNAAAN
Procedure: (§1) HEK293 cells, vector-transfected or human (h)SLCO1A2, hSLCO1B1 or hSLCO1B3 cDNA-transfected were kind gifts from Prof. Werner Siegmund and Dr. Markus Keiser (University of Greifswald, Greifswald, Germany). All the HEK293 cell lines were maintained in DMEM supplemented with 10% (v/v) FBS, 1% penicillin–streptomycin mix at 37 °C in 5% (v/v) CO2 and 500 μg/mL G418. Cells were first seeded in 12-well plates [coated with 50 mg/L poly (l-lysine) and 50 mg/L poly (l-ornithine)] at a density of 1.0 × 10^5 cells/well. For the uptake study, in order to induce the expression of OATP transporters, the cell culture medium was replaced with culture medium supplemented with 5 mM sodium butyrate 24 h before performing the uptake assay.
(§2) The uptake transport study was performed as described previously. […] The Krebs–Henseleit solution was prepared from Krebs–Henseleit-buffer modified powder and supplemented with 25 mM NaHCO3 and 2.5 mM CaCl2 adjusted to pH 6.4 with 1 M HCL. At 2.5 min, the incubation buffer was removed, and uptake was terminated by adding 1 mL of ice-cold Krebs–Henseleit buffer, followed by two times washing with 1 mL of ice-cold Krebs–Henseleit buffer. […] The cellular protein amount was determined by the Bradford method using 10 μL of the cell lysates with bovine serum albumin as a standard.

human OATP1B1 = target: T2, human OATP1B1 (Homo sapiens, UniProt Q9Y6L6); assay: Cellular uptake in OATP1B1-overexpressing HEK293 cells; type: in vitro ADME; settings: 5 µM, 2.5 min incubation, HEK293 OATP1B1
T2 construct: Werner Siegmund and Dr. Markus Keiser (University of Greifswald); host or cells: HEK293
T2 sequence (Q9Y6L6 1-691): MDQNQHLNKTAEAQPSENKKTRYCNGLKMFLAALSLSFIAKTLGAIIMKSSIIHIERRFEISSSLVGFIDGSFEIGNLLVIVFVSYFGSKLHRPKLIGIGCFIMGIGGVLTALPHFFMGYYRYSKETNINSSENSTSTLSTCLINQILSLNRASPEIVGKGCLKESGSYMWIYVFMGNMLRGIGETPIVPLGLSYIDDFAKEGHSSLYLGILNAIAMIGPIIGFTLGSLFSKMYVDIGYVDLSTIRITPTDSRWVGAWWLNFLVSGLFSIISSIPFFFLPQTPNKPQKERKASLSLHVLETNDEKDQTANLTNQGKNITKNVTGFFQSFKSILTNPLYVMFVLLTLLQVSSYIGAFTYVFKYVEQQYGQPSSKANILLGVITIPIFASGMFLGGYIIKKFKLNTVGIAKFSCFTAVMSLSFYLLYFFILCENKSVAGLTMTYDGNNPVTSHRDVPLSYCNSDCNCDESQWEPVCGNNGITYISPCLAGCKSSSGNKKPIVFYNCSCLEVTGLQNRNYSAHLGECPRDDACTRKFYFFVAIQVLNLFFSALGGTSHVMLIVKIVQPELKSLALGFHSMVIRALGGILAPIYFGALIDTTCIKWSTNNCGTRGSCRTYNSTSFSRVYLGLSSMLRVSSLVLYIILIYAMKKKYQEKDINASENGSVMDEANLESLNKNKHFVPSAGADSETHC
Procedure: as §1, §2

[1] = test system: RET-mutant medullary thyroid cancer; settings: clinical phase 1 study; cited from earlier work

COc1ccc(CN2C3CC2CN(c2ccc(-c4cc(OCC(C)(C)O)cn5ncc(C#N)c45)cn2)C3)cn1 [selpercatinib]
uptake compared to vector control cells (human OATP1B3): did not observe any significant increase in the uptake
uptake compared to vector control cells (human OATP1B1): did not observe any significant increase in the uptake
overall response rate [1]: 45%
